Test results from the supplement of paper PMC4862054.

What was measured:
Conditions in all cases: incubation time: 72 h
MDA-MB-453 [1] = assay: normalised viability (% of control), CellTiter-Blue; higher = more viable cells (about 100 = DMSO control)
Method in brief: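 Plates were quality-checked by Z'-factor and normalised to vehicle (100) and a positive kill control (0). The underlying assay incubated breast cancer cell lines for 72 h on 384-well plates with compound, then added 2.5 µl CellTiter-Blue for 2 h at 37 °C and read at 560/590 nm. The value is normalised viability at a single listed concentration of the series.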

BT-549 [2] = assay: normalised viability (% of control), CellTiter-Blue; higher = more viable cells (100 = DMSO, 0 = benzethonium chloride kill control)
Experimental: (§1)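 DSRT, CellTiter-Blue viability, 72 h incubation. Signal is normalised to DMSO and benzethonium chloride controls. Value is the normalised response at dose 1.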

SK-BR-3 [3] = assay: as above
Experimental: as §1

BT-474 [4] = assay: as above
Experimental: as §1

MDA-MB-453 [5] = assay: as above
Experimental: as §1

DU-4475 [6] = assay: as above
Experimental: as §1

CAL-85-1 [7] = assay: as above
Experimental: as §1

HCC1599 [8] = assay: as above
Experimental: as §1

MDA-MB-436 [9] = assay: as above
Experimental: as §1

MDA-MB-231 [10] = assay: as above
Experimental: as §1

MDA-MB-468 [11] = assay: as above
Experimental: as §1

HCC1143 [12] = assay: as above
Experimental: as §1

CAL-51 [13] = assay: as above
Experimental: as §1

BT-549 [14] = assay: normalised viability (% of control), CellTiter-Blue; higher = more viable cells (about 100 = DMSO control)
Experimental: (§2)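 DSRT, CellTiter-Blue viability, 72 h incubation. Signal is normalised to DMSO and benzethonium chloride controls. Value is the normalised response at dose 3.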

SK-BR-3 [15] = assay: as above
Experimental: as §2

BT-474 [16] = assay: as above
Experimental: as §2

HDQ-P1 = assay: as above
Experimental: as §2

MDA-MB-453 [17] = assay: as above; remark: listed apart in the source
Experimental: as §2

CAL-120 = assay: as above
Experimental: as §2

DU-4475 [18] = assay: as above
Experimental: as §2

CAL-85-1 [19] = assay: as above
Experimental: as §2

Hs578T = assay: as above
Experimental: as §2

MFM-223 = assay: as above
Experimental: as §2

HCC1937 = assay: as above
Experimental: as §2

HCC1599 [20] = assay: as above
Experimental: as §2

CAL-148 = assay: as above
Experimental: as §2

MDA-MB-436 [21] = assay: as above
Experimental: as §2

MDA-MB-231 [22] = assay: as above
Experimental: as §2

MDA-MB-468 [23] = assay: as above
Experimental: as §2

HCC1143 [24] = assay: as above
Experimental: as §2

CAL-51 [25] = assay: as above
Experimental: as §2

Work on `CCN(CC)CCCC(C)Nc1c2ccc(Cl)cc2nc2ccc(OC)cc12` (stereo not drawn) [Mepacrine] yielded a normalised viability (MDA-MB-453 [1]; 99 nM) of 97.2%, a normalised viability (MDA-MB-453 [1]; 1000 nM) of 101% and a normalised viability (BT-549 [2]; 0.099 nM) of 96.1%. It also gave a normalised viability (BT-549 [2]; 1 nM) of 86.5%, a normalised viability (SK-BR-3 [3]; 0.099 nM) of 100% and a normalised viability (SK-BR-3 [3]; 1 nM) of 101%. The normalised viability (BT-474 [4]; 0.099 nM) was 74.2%, the normalised viability (BT-474 [4]; 1 nM) was 113% and the normalised viability (MDA-MB-453 [5]; 0.099 nM) was 98%. For the same compound, the normalised viability (MDA-MB-453 [5]; 1 nM) was 106%, the normalised viability (DU-4475 [6]; 0.099 nM) was 93.5% and the normalised viability (DU-4475 [6]; 1 nM) was 111%. For the same compound, the normalised viability (CAL-85-1 [7]; 0.099 nM) was 101%, the normalised viability (CAL-85-1 [7]; 1 nM) was 94.5% and the normalised viability (HCC1599 [8]; 0.099 nM) was 102%. For the same compound, the normalised viability (HCC1599 [8]; 1 nM) was 96.2%, the normalised viability (MDA-MB-436 [9]; 0.099 nM) was 112% and the normalised viability (MDA-MB-436 [9]; 1 nM) was 101%. For the same compound, the normalised viability (MDA-MB-231 [10]; 0.099 nM) was 95.4%, the normalised viability (MDA-MB-231 [10]; 1 nM) was 101% and the normalised viability (MDA-MB-468 [11]; 0.099 nM) was 108%. For the same compound, the normalised viability (MDA-MB-468 [11]; 1 nM) was 101%, the normalised viability (HCC1143 [12]; 0.099 nM) was 108% and the normalised viability (HCC1143 [12]; 1 nM) was 98.1%. The normalised viability (CAL-51 [13]; 0.099 nM) was 90.8%, the normalised viability (CAL-51 [13]; 1 nM) was 97.2% and the normalised viability (BT-549 [14]; 9.9 nM) was 86.1%. For the same compound, the normalised viability (BT-549 [14]; 100 nM) was 90.3%, the normalised viability (SK-BR-3 [15]; 9.9 nM) was 99.8% and the normalised viability (SK-BR-3 [15]; 100 nM) was 91.3%. The normalised viability (BT-474 [16]; 9.9 nM) was 113%, the normalised viability (BT-474 [16]; 100 nM) was 109% and the normalised viability (HDQ-P1; 0.99 nM) was 117%. For the same compound, the normalised viability (HDQ-P1; 10 nM) was 114%, the normalised viability (MDA-MB-453 [17]; 0.99 nM) was 98.4% and the normalised viability (MDA-MB-453 [17]; 10 nM) was 100%. The normalised viability (CAL-120; 9.9 nM) was 117%, the normalised viability (CAL-120; 100 nM) was 104% and the normalised viability (DU-4475 [18]; 0.99 nM) was 83.1%. It also gave a normalised viability (DU-4475 [18]; 10 nM) of 96.4%, a normalised viability (CAL-85-1 [19]; 0.99 nM) of 99% and a normalised viability (CAL-85-1 [19]; 10 nM) of 92.6%. The normalised viability (Hs578T; 9.9 nM) was 114%, the normalised viability (Hs578T; 100 nM) was 110% and the normalised viability (MFM-223; 9.9 nM) was 97%. For the same compound, the normalised viability (MFM-223; 100 nM) was 97.9%, the normalised viability (HCC1937; 9.9 nM) was 99.4% and the normalised viability (HCC1937; 100 nM) was 87.4%. It also gave a normalised viability (HCC1599 [20]; 9.9 nM) of 88.2%, a normalised viability (HCC1599 [20]; 100 nM) of 88.9% and a normalised viability (CAL-148; 0.99 nM) of 116%. The normalised viability (CAL-148; 10 nM) was 107%, the normalised viability (MDA-MB-436 [21]; 9.9 nM) was 108% and the normalised viability (MDA-MB-436 [21]; 100 nM) was 91.3%. For the same compound, the normalised viability (MDA-MB-231 [22]; 9.9 nM) was 95.2%, the normalised viability (MDA-MB-231 [22]; 100 nM) was 89.8% and the normalised viability (MDA-MB-468 [23]; 9.9 nM) was 110%. The normalised viability (MDA-MB-468 [23]; 100 nM) was 105%, the normalised viability (HCC1143 [24]; 9.9 nM) was 130% and the normalised viability (HCC1143 [24]; 100 nM) was 106%. For the same compound, the normalised viability (CAL-51 [25]; 0.99 nM) was 95.9% and the normalised viability (CAL-51 [25]; 10 nM) was 99.6%.
For `C[C@H]1C[C@@H]2[C@H]([C@@H](O)C[C@@]3(C)[C@H]2CC[C@]3(O)C(=O)CO)[C@@]2(C)C=CC(=O)C=C12` [Methylprednisolone], the normalised viability (MDA-MB-453 [1]; 1000 nM) was 69.3%, the normalised viability (BT-549 [2]; 1 nM) was 93% and the normalised viability (SK-BR-3 [3]; 1 nM) was 92.2%. For the same compound, the normalised viability (BT-474 [4]; 1 nM) was 108%, the normalised viability (MDA-MB-453 [5]; 1 nM) was 95.4% and the normalised viability (DU-4475 [6]; 1 nM) was 95.4%. For the same compound, the normalised viability (CAL-85-1 [7]; 1 nM) was 84.6%, the normalised viability (HCC1599 [8]; 1 nM) was 114% and the normalised viability (MDA-MB-436 [9]; 1 nM) was 108%. For the same compound, the normalised viability (MDA-MB-231 [10]; 1 nM) was 103%, the normalised viability (MDA-MB-468 [11]; 1 nM) was 101% and the normalised viability (HCC1143 [12]; 1 nM) was 93.3%. For the same compound, the normalised viability (CAL-51 [13]; 1 nM) was 103%, the normalised viability (BT-549 [14]; 100 nM) was 111% and the normalised viability (SK-BR-3 [15]; 100 nM) was 82.5%. It also gave a normalised viability (BT-474 [16]; 100 nM) of 119%, a normalised viability (HDQ-P1; 10 nM) of 116% and a normalised viability (MDA-MB-453 [17]; 10 nM) of 100%. For the same compound, the normalised viability (CAL-120; 100 nM) was 79.8%, the normalised viability (DU-4475 [18]; 10 nM) was 101% and the normalised viability (CAL-85-1 [19]; 10 nM) was 114%. The normalised viability (Hs578T; 100 nM) was 85.3%, the normalised viability (MFM-223; 100 nM) was 81.1% and the normalised viability (HCC1937; 100 nM) was 97.7%. For the same compound, the normalised viability (HCC1599 [20]; 100 nM) was 108%, the normalised viability (CAL-148; 10 nM) was 91.3% and the normalised viability (MDA-MB-436 [21]; 100 nM) was 94.6%. The normalised viability (MDA-MB-231 [22]; 100 nM) was 120%, the normalised viability (MDA-MB-468 [23]; 100 nM) was 96.6% and the normalised viability (HCC1143 [24]; 100 nM) was 86.6%. It also gave a normalised viability (CAL-51 [25]; 10 nM) of 101%.
